Results taken from patent US20260007681A1, “INDOLE DERIVATIVES AS ESTROGEN RECEPTOR DEGRADERS” (REGENTS OF THE UNIVERSITY OF MICHIGAN, priority 2022, published 2026).
Structures can show the parent of a compound that is named as a salt. Where two headings read alike, the source gives them in different places.

Key:
[1] = biological target: ERα_LBD(GST) (Homo sapiens (Human), UniProt P03372); assay: IC50 measurements for binding to ERα_LBD (GST), LanthaScreen TR-FRET ERα competitive binding assay; conditions: 4 nM ERα_LBD(GST), 3 nM Fluormone ES2 Green tracer, 60 min; read-out: ERα HTRF IC50
Sequence of ERα_LBD(GST) (P03372 311-547): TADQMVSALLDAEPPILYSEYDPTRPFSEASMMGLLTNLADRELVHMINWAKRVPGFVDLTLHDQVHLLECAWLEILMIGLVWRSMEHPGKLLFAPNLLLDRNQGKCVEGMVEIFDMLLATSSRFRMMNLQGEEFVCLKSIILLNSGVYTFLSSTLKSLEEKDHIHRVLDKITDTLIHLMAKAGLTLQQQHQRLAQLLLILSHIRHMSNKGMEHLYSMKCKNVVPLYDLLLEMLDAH
Method: • 1. ERα_LBD(GST) protein: 4 nM • 2. Tb Anti-GST: 2 nM • 3. Fluormone ES2 Green tracer: 3 nM • 4. Incubation time: 60 min • 5. DMSO: 1% • 6. Assay buffer: Adding 1M DTT to Nuclear receptor Buffer K for final 5 mM DTT. • 7. ZPE: 1% DMSO • 8. HPE: 1 μM ARV_471 • 9. LanthaScreen® TR-FRET ERα Competitive Binding Assay (ThermoFisher, #A15887)
• 1) Cherry pick 2 μL 10 mM compound stock to column 1 of a 384 intermediate plate • 2) Add 18 μL DMSO to column 1 to dilute compound to 1 mM. • 3) Transfer 10 μL 1 mM compound to column 1 of a LDV plate. • 4) Add 6 μl DMSO to column 2-10 of the LDV plate. • 5) Compounds undergo 3-fold serial dilution (3 μL+6 μL) in DMSO. • 6) Transfer 120 nL compound solution to assay plate. • ZPE: 120 nL 100% DMSO
Prepare complete nuclear receptor buffer K by adding 1 M DTT to nuclear receptor buffer K for a final concentration of 5 mM DTT. Complete nuclear receptor buffer K must be prepared fresh daily. Prepare 2X protein solution using complete nuclear receptor buffer K containing 8 nM ERα_LBD(GST) and 4 nM Tb Anti-GST. Then, prepare 2× Fluormone ES2 Green tracer (6 nM) using complete nuclear receptor buffer K. Add 6 μL 2× Fluormone ES2 green tracer into a compound plate (PerkinElmer 6008289) by dragonfly with one-tips-addition. Subsequently, add 6 μL 2× protein solution into the plate. Briefly and gently mix the 384-well plate on a plate shaker and incubate at room temperature protected from light for 60 min. The plate is sealed with a cover to minimize evaporation. Read the plate at wavelengths of 520 nm and 495 nm. Calculate the TR-FRET ratio by dividing the emission signal at 520 nm by the emission signal at 495 nm. Generate a binding curve by plotting the emission ratio vs. the log [ligand]. To determine the IC50 value, fit the data using XL-fit for a sigmoidal dose-response.

[2] = biological target: ER in T47D cells (Homo sapiens (Human), UniProt P03372); assay: In-cell western (ICW) ER degradation assay in T47D cells (Compounds A1-A70); format: cell-based; conditions: T47D cells, 16 hrs treatment; for DC50: ER degradation, 0.02 to 300 nM; for Dmax: T47D, maximal ER degradation, read-out: T47D ICW Dmax (%)
Sequence of ER in T47D cells (P03372 whole entry): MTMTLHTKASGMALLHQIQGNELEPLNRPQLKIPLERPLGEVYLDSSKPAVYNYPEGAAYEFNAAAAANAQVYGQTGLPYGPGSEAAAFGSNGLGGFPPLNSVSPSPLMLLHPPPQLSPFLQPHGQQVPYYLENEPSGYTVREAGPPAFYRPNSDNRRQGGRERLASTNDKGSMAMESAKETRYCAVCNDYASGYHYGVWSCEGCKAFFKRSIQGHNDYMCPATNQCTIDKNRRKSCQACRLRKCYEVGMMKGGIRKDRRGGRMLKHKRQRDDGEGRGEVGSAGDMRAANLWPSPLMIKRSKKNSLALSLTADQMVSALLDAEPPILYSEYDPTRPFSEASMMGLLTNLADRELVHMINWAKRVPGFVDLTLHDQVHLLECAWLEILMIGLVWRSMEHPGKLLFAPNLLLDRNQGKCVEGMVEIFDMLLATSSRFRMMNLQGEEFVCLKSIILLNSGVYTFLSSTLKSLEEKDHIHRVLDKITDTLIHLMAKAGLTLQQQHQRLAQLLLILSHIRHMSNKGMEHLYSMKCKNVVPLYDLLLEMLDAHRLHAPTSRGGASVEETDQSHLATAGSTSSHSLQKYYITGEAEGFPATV

[3] = biological target: ER in MCF-7 cells (Homo sapiens (Human), UniProt P03372); assay: In-cell western (ICW) ER degradation assay in MCF-7 cells (Compounds A1-A70); format: cell-based; conditions: for DC50: ER degradation, 0.02 to 300 nM, read-out: MCF7 ICW DC50
Sequence of ER in MCF-7 cells (P03372 whole entry): as above

[4] = biological target: CRBN/DDB1 (Homo sapiens (Human), UniProt Q96SW2); format: binding; conditions: His tagged CRBN+DDB-DLS7+CXU4, Cy5-labeled Thalidomide probe, one hour incubation; read-out: CRBN HTRF IC50
Sequence of CRBN/DDB1 (Q96SW2 whole entry): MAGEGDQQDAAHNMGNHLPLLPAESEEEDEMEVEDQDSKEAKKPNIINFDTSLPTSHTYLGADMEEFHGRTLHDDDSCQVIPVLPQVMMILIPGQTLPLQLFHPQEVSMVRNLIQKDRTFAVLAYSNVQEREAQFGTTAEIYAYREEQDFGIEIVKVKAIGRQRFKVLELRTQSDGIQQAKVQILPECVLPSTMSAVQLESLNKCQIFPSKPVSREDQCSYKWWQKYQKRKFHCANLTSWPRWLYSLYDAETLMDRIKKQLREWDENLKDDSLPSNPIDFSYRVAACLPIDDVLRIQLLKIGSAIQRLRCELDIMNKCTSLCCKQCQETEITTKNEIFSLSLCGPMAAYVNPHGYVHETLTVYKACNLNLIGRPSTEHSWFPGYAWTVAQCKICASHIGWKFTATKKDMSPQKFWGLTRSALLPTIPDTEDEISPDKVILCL
Sequence of CRBN/DDB1 (Q16531 whole entry partner): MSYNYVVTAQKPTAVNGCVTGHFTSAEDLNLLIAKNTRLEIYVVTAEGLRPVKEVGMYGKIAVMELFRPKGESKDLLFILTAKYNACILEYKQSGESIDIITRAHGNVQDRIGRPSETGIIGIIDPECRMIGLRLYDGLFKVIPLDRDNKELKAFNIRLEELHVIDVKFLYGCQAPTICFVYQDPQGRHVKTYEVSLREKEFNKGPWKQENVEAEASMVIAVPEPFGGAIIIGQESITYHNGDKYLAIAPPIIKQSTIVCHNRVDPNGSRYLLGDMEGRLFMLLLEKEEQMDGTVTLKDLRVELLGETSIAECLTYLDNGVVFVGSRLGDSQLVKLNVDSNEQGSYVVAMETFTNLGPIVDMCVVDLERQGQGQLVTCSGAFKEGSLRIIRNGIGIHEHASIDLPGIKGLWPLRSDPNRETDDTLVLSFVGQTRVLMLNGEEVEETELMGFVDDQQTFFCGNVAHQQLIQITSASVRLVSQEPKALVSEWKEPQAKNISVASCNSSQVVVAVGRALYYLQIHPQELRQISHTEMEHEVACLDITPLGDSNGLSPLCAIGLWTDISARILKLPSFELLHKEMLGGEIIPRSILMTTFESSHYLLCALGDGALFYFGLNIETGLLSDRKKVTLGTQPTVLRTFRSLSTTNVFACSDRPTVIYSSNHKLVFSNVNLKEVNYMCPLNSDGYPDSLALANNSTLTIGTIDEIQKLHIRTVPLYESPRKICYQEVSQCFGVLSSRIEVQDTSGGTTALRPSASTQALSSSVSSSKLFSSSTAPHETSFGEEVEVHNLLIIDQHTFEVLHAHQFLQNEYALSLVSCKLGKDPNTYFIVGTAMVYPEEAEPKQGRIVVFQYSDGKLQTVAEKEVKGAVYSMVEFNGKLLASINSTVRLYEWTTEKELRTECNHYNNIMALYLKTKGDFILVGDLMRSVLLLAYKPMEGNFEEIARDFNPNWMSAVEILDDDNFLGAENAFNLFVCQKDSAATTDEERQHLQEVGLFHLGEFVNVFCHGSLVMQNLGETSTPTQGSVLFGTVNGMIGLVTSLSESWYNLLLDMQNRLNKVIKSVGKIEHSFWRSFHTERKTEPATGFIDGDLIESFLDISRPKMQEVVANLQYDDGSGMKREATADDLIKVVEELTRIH
Method: The binding potency was determined using H-TRF assay technology (Perkin Elmer). Compounds were serially diluted in DMSO and 0.2 μL volume was transferred to white 384-well plate.

[5] = MCF7, read-out: MCF7 ICW Dmax (%)
[6] = MCF7, maximal ER degradation, MCF-7 cells, 16 hrs treatment, read-out: MCF7 ICW Dmax (%)

Compound	IC50 [1] [nM]	DC50 [2] [nM]	Dmax [2] [%]	DC50 ([3]; MCF-7 cells, 16 hrs treatment) [nM]	Dmax [3, 5] [%]	Dmax [3, 6] [%]	MCF7 ICW Dmax (%) ([3]; maximal ER degradation, MCF-7 cells, 16 hrs treatment)	IC50 [4] [nM]
C[C@H]1Cc2c([nH]c3ccccc23)[C@H](c2cnc(N3CCC4(CC3)C[C@@H](CN3CCN5c6cc7c(cc6OC[C@H]5C3)C(=O)N([C@@H]3CCC(=O)NC3=O)C7)CO4)nc2)N1CC(F)F [Compound A61, (R)-3-((R)-3-(((S)-8-(5-((1S,3S)-2-(2,2-difluoroethyl)-3-methyl-2,3,4,9-tetrahydro-1H-pyrido[3,4-b]indol-1-yl)pyrimidin-2-yl)-1-oxa-8-azaspiro[4.5]decan-3-yl)methyl)-8-oxo-1,2,3,4,4a,5,8,10-octahydro-9H-pyrazino[1′,2′:4,5][1,4]oxazino[2,3-f]isoindol-9-yl)piperidine-2,6-dione]	≥ 10	< 1	50 to 75	< 1	50 to 75			
C[C@H]1Cc2c([nH]c3ccccc23)[C@H](c2cnc(N3CCC4(CC3)C[C@@H](CN3CCN5c6ccc7c(c6OC[C@@H]5C3)CN([C@@H]3CCC(=O)NC3=O)C7=O)CO4)nc2)N1CC(F)F [Compound A59, (R)-3-((S)-7-(((S)-8-(5-((1S,3S)-2-(2,2-difluoroethyl)-3-methyl-2,3,4,9-tetrahydro-1H-pyrido[3,4-b]indol-1-yl)pyrimidin-2-yl)-1-oxa-8-azaspiro[4.5]decan-3-yl)methyl)-1-oxo-1,3,5,5a,6,7,8,9-octahydro-2H-pyrazino[1′,2′:4,5][1,4]oxazino[2,3-e]isoindol-2-yl)piperidine-2,6-dione formate]	≥ 10	< 1	50 to 75	< 1	50 to 75			
C[C@@H]1Cc2c([nH]c3ccccc23)[C@@H](c2cnc(N3CCC4(CC3)C[C@@H](CN3CCC(c5ccc(N[C@@H]6CCC(=O)NC6=O)cc5)CC3)CO4)nc2)N1CC(F)F [Compound A70, (3R)-3-((4-(1-((8-(5-((1R,3R)-2-(2,2-difluoroethyl)-3-methyl-2,3,4,9-tetrahydro-1H-pyrido[3,4-b]indol-1-yl)pyrimidin-2-yl)-1-oxa-8-azaspiro[4.5]decan-3-yl)methyl)piperidin-4-yl)phenyl)amino)piperidine-2,6-dione]	< 10	< 1	> 75	< 1		50 to 75		
COc1cc(N2CCC(CN3CCN4c5ccc6c(c5OC[C@@H]4C3)CN([C@H]3CCC(=O)NC3=O)C6=O)CC2)ccc1[C@@H]1c2[nH]c3ccccc3c2C[C@@H](C)N1CC(F)F [Compound A12, (S)-3-((S)-7-((1-(4-((1R,3R)-2-(2,2-difluoroethyl)-3-methyl-2,3,4,9-tetrahydro-1H-pyrido[3,4-b]indol-1-yl)-3-methoxyphenyl)piperidin-4-yl)methyl)-1-oxo-1,3,5,5a,6,7,8,9-octahydro-2H-pyrazino[1′,2′:4,5][1,4]oxazino[2,3-e]isoindol-2-yl)piperidine-2,6-dione]	< 10			< 1			B (“B”: >50% and <75%)	
COc1cc(N2CCC(CN3CCC(c4ccc5c(c4)n(C)c(=O)n5C4CCC(=O)NC4=O)CC3)CC2)ccc1[C@@H]1c2[nH]c3ccccc3c2C[C@@H](C)N1CC(F)F (stereo partly drawn) [Compound A35, 3-(5-(1-((1-(4-((1R,3R)-2-(2,2-difluoroethyl)-3-methyl-2,3,4,9-tetrahydro-1H-pyrido[3,4-b]indol-1-yl)-3-methoxyphenyl)piperidin-4-yl)methyl)piperidin-4-yl)-3-methyl-2-oxo-2,3-dihydro-1H-benzo[d]imidazol-1-yl)piperidine-2,6-dione]		< 1	50 to 75	10 to 100		25 to 50		50 to 500
C[C@@H]1Cc2c([nH]c3ccccc23)[C@H](c2cnc(N3CCC4(CC3)C[C@@H](CN3CCN5c6ccc(C(=O)N[C@H]7CCC(=O)NC7=O)nc6OC[C@H]5C3)CO4)nc2)N1CC(F)F [Compound A65, (R)-3-(((S)-8-(5-((1S,3R)-2-(2,2-difluoroethyl)-3-methyl-2,3,4,9-tetrahydro-1H-pyrido[3,4-b]indol-1-yl)pyrimidin-2-yl)-1-oxa-8-azaspiro[4.5]decan-3-yl)methyl)-N-((S)-2,6-dioxopiperidin-3-yl)-1,2,3,4,4a,5-hexahydropyrazino[1,2-d]pyrido[2,3-b][1,4]oxazine-8-carboxamide]		1 to 10	50 to 75	1 to 10		50 to 75		50 to 500
COc1cc(N2CCC(CN3CCN(c4ccc(C(=O)NC5CCC(=O)NC5=O)nc4OC)CC3)CC2)ccc1[C@@H]1c2[nH]c3ccccc3c2C[C@@H](C)N1CC(F)F (stereo partly drawn) [Compound A52, 5-(4-((1-(4-((1R,3R)-2-(2,2-difluoroethyl)-3-methyl-2,3,4,9-tetrahydro-1H-pyrido[3,4-b]indol-1-yl)-3-methoxyphenyl)piperidin-4-yl)methyl)piperazin-1-yl)-N-(2,6-dioxopiperidin-3-yl)-6-methoxypicolinamide]		1 to 10	25 to 50	< 1		25 to 50		> 5000
COc1cc(N2CCC(CN3CCC(c4ccc(N[C@H]5CCC(=O)NC5=O)cc4F)CC3)CC2)ccc1[C@@H]1c2[nH]c3ccccc3c2C[C@@H](C)N1CC(F)F [Compound A34, (S)-3-((4-(1-((1-(4-((1R,3R)-2-(2,2-difluoroethyl)-3-methyl-2,3,4,9-tetrahydro-1H-pyrido[3,4-b]indol-1-yl)-3-methoxyphenyl)piperidin-4-yl)methyl)piperidin-4-yl)-3-fluorophenyl)amino)piperidine-2,6-dione]		< 1	25 to 50	> 100		< 25		< 50
COc1cc(N2CCC(CN3CCN(c4ccc(NC5CCC(=O)NC5=O)cc4F)CC3)CC2)ccc1[C@@H]1c2[nH]c3ccccc3c2C[C@@H](C)N1CC(F)F (stereo partly drawn) [Compound A31, 3-((4-(4-((1-(4-((1R,3R)-2-(2,2-difluoroethyl)-3-methyl-2,3,4,9-tetrahydro-1H-pyrido[3,4-b]indol-1-yl)-3-methoxyphenyl)piperidin-4-yl)methyl)piperazin-1-yl)-3-fluorophenyl)amino)piperidine-2,6-dione]		1 to 10	25 to 50	< 1		25 to 50		< 50
COc1cc(N2CCC3(CCN(C(=O)CN4Cc5cc6c(cc5C4)C(=O)N(C4CCC(=O)NC4=O)C6=O)CC3)CC2)ccc1[C@@H]1c2[nH]c3ccccc3c2C[C@@H](C)N1CC(F)F (stereo partly drawn) [Compound A27, 6-(2-(9-(4-((1R,3R)-2-(2,2-difluoroethyl)-3-methyl-2,3,4,9-tetrahydro-1H-pyrido[3,4-b]indol-1-yl)-3-methoxyphenyl)-3,9-diazaspiro[5.5]undecan-3-yl)-2-oxoethyl)-2-(2,6-dioxopiperidin-3-yl)-6,7-dihydropyrrolo[3,4-f]isoindole-1,3(2H,5H)-dione]		< 1	> 75	< 1		50 to 75		500 to 5000
COc1cc(N2CCC(CN3CCN(c4ccc(C(=O)N[C@@H]5CCC(=O)NC5=O)nc4)CC3)CC2)ccc1[C@@H]1c2[nH]c3ccccc3c2C[C@@H](C)N1CC(F)F [Compound A57, 5-(4-((1-(4-((1R,3R)-2-(2,2-difluoroethyl)-3-methyl-2,3,4,9-tetrahydro-1H-pyrido[3,4-b]indol-1-yl)-3-methoxyphenyl)piperidin-4-yl)methyl)piperazin-1-yl)-N-((R)-2,6-dioxopiperidin-3-yl)picolinamide formate]		< 1	25 to 50	< 1		50 to 75		< 50
